The results in this text go back to US9783552B2, “Soluble guanylate cyclase activators” (MERCK SHARP & DOHME CORP., priority 2013, dated 2017).

For this experiment, the target named is T1, sGC α1/β1 heterodimer (Homo sapiens, UniProt Q02108+Q02153).
T1 construct: expressed in transfected cells
T1 sequence (Q02108 1-690): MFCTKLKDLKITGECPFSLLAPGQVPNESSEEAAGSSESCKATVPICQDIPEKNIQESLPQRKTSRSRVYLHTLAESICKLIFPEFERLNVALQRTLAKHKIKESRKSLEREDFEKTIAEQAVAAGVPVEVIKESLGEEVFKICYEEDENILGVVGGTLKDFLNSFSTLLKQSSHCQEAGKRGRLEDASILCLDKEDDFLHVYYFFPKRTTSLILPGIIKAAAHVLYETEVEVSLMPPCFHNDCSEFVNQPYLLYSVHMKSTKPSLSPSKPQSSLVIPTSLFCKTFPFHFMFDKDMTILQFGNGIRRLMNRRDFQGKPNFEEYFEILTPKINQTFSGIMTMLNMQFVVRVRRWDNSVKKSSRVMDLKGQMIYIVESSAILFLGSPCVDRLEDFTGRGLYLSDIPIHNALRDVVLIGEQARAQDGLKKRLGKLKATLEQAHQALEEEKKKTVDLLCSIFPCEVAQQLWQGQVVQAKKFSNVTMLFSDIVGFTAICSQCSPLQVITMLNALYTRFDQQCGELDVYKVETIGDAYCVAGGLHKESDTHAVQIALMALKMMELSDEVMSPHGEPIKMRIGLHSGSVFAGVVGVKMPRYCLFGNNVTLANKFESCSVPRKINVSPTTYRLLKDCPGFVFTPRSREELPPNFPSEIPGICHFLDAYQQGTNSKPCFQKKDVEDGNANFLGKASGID
T1 sequence (Q02153 1-619): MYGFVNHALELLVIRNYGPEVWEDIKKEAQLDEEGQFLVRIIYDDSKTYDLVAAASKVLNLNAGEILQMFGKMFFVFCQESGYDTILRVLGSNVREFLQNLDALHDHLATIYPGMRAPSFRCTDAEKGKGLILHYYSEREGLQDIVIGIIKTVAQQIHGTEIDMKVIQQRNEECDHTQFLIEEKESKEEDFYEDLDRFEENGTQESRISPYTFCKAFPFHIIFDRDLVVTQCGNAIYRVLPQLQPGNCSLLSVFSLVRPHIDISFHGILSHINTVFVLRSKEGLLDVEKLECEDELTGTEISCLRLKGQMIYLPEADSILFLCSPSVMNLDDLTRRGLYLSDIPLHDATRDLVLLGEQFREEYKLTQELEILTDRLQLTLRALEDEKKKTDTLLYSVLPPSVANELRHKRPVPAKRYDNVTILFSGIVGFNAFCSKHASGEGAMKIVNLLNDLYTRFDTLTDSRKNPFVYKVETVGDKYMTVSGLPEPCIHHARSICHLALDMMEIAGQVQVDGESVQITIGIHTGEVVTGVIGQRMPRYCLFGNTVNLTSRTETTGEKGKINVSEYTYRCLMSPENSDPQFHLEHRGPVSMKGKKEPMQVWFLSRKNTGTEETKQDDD
Briefly: Cell-Based sGC Functional Assay (CASA Assay). The note with it: CHO-K1/sGC cells; for EC50: intracellular cGMP by HTRF, 1 hr at 37° C., IP from 4P fit, presence or absence of 1 μM DETA-NO not given; for Emax: cGMP as percentage of maximum cGMP production of Compound A (=100% activation), read-out: % ACT (percent activation). The source says:
Biological Assays: Cell-Based sGC Functional Assay (CASA Assay)
sGC is a heme-containing enzyme that converts GTP to secondary messenger cGMP. Increases in cGMP levels affect several physiological processes including vasorelaxation through multiple downstream pathways. […] Heme-dependent activators (HDAs) preferentially activate sGC containing a ferrous heme group. To determine the effect of sGC activators on enzyme activity, the CASA assay was developed to monitor the generation of cGMP in a cell line that stably expresses the heterodimeric sGC protein.
A CHO-K1 cell line stably expressing the sGC α1/β1 heterodimer was generated using a standard transfection protocol. CHO-K1 cells were transfected with plasmids pIREShyghsGCα1 and pIRESneo-hsGCβ1 simultaneously using FUGENE reagent. Clones that stably express both subunits were selected with hygromycin and neomycin for ˜2 weeks. Clone #7 was chosen for the assay and was designated CHO-K1/sGC. CHO-K1/sGC cells were maintained in F-K12 medium containing 10% heat-inactivated Fetal Bovine Serum (FBS), 100 μg/mL penicillin/streptomycin, 0.5 mg/mL hygromycin and 0.25 mg/mL G418. The cells were then cryopreserved in LN2. On the day of the assay, cells were thawed and resuspended in EBSS Assay Buffer (EAB, Sigma, E3024) supplemented with 5 mM MgCl2, 10 mM HEPES (4-(2-hydroxyethyl)piperazine-1-ethanesulfonic acid) and 0.05% BSA (bovine serum albumin) and cell density was then adjusted to 4×10^5/mL with EAB. IBMX (3-isobutyl-1-methylxanthin, 0.5 mM) was added to inhibit degradation of cGMP. Compounds were diluted from DMSO stock solutions and added to the assay at a final DMSO concentration of 2.5%. Cells were incubated with compounds in the presence and absence of 1 μM of Diethylenetriamine/nitric oxide adduct (DETA-NO; Sigma, 17018) for 1 hr at 37° C. At the end of the incubation period, the reaction was terminated and the cells were lysed with the detection reagents from Cisbio Kits. The level of intracellular cGMP was determined using an HTRF-based assay kit (CisBio, 62GM2PEC), which detects the displacement of a fluorescence labeled cGMP from its specific antibody. The cGMP produced by test compounds was directly compared to the maximum cGMP production (this value was set to equal 100% activation) of the published sGC-HDA Compound A:
[drawing 123] (Example 1 in WO 2010/065275, published Jun. 10, 2010). The test compounds' activity was then expressed as a percentage of Compound A, the standard in every experiment. This percent activation was calculated either in the presence or absence of DETA-NO which was then plotted. IP and maximum fold induction was derived using ADA analysis software for 4P fit.

What is called EC50 is the concentration giving half of the maximal effect. For the compound `[2H]C([2H])([2H])n1ncc2c(-c3nc(N)c4c(n3)NC(=O)C4(C)C(=O)Nc3cnn(C)c3)nc(CCC(F)(F)C(F)(F)F)nc21` (single isomer, unassigned) [Example 42, 4-amino-5-methyl-N-(1-methyl-1H-pyrazol-4-yl)-2-(6-(3,3,4,4,4-pentafluorobutyl)-1-trideuteriomethyl-1H-pyrazolo[3,4-d]pyrimidin-4-yl)-6-oxo-6,7-dihydro-5H-pyrrolo[2,3-d]pyrimidine-5-carboxamide], it took 111 nM to reach a half-maximal effect (EC50) and the Emax was 134%.

On to `Cn1ncc2c(-c3nc(N)c4c(n3)NC(=O)C4(C(=O)NC3CC3)C3CC3)nc(CCC(F)(F)C(F)(F)F)nc21` (single isomer, unassigned) [Example 33, 4-Amino-N,5-dicyclopropyl-2-(1-methyl-6-(3,3,4,4,4-pentafluorobutyl)-1H-pyrazolo[3,4-d]pyrimidin-4-yl)-6-oxo-6,7-dihydro-5H-pyrrolo[2,3-d]pyrimidine-5-carboxamide], for which the EC50 turned out to be 53 nM and the Emax was 112%.

Turning to `Cn1ncc2c(-c3nc(N)c4c(n3)NC(=O)C4(C)C#N)nc(CCC(F)(F)C(F)(F)F)nc21` (single isomer, unassigned) [Example 49, 4-Amino-5-methyl-2-(1-methyl-6-(3,3,4,4,4-pentafluorobutyl)-1H-pyrazolo[3,4-d]pyrimidin-4-yl)-6-oxo-6,7-dihydro-5H-pyrrolo[2,3-d]pyrimidine-5-carbonitrile], a half-maximal effect (EC50) was put at 248 nM and the Emax was determined as 105%.

With `Cn1ccc2c(-c3nc(N)c4c(n3)NC(=O)C4(C)c3ccccc3)nc(Cc3cccc(F)c3F)nc21` (single isomer, unassigned) [Example 64, 4-Amino-2′-(2,3-difluorobenzyl)-5,7′-dimethyl-5-phenyl-5H,7′H-[2,4′-bipyrrolo[2,3-d]pyrimidin]-6(7H)-one], the EC50 is 12 nM and the Emax is 83%.

Regarding `CCOC(=O)C1(C2CC2)C(=O)Nc2nc(-c3nc(CCCC(F)(F)F)nc4c3cnn4C)nc(N)c21` (single isomer, unassigned) [Example 27, Ethyl 4-amino-5-cyclopropyl-2-(1-methyl-6-(4,4,4-trifluorobutyl)-1H-pyrazolo[3,4-d]pyrimidin-4-yl)-6-oxo-6,7-dihydro-5H-pyrrolo[2,3-d]pyrimidine-5-carboxylate], the response was half-maximal at 602 nM (EC50) and the Emax came out at 98%.

As for `[2H]C([2H])([2H])n1ncc2c(-c3nc(N)c4c(n3)NC(=O)C4(C(N)=O)C(C)C)nc(CCC(F)(F)C(F)(F)F)nc21` (single isomer, unassigned) [Example 37, 4-Amino-5-isopropyl-2-(6-(3,3,4,4,4-pentafluorobutyl)-1-trideuteriomethyl-1H-pyrazolo[3,4-d]pyrimidin-4-yl)-6-oxo-6,7-dihydro-5H-pyrrolo[2,3-d]pyrimidine-5-carboxamide], the EC50 came out at 540 nM and the Emax stood at 93%.

Take `Cn1ncc2c(-c3nc(N)c4c(n3)NC(=O)C4(C)c3ccc(F)cc3)nc(CC3CC(F)(F)C3)nc21` (single isomer, unassigned) [Example 5, 4-Amino-2-(6-((3,3-difluorocyclobutyl)methyl)-1-methyl-1H-pyrazolo[3,4-d]pyrimidin-4-yl)-5-(4-fluorophenyl)-5-methyl-5H-pyrrolo[2,3-d]pyrimidin-6(7H)-one]: the EC50 is 53 nM and the Emax stood at 122%.

With `C#CC1(C)C(=O)Nc2nc(-c3nc(CCC(F)(F)C(F)(F)F)nc4c3cnn4C)nc(N)c21` (single isomer, unassigned) [Example 21, 4-Amino-5-ethynyl-5-methyl-2-(1-methyl-6-(3,3,4,4,4-pentafluorobutyl)-1H-pyrazolo[3,4-d]pyrimidin-4-yl)-5H-pyrrolo[2,3-d]pyrimidin-6(7H)-one], it took 92 nM to reach a half-maximal effect (EC50) and the Emax is 106%.

On to `[2H]C([2H])([2H])n1ncc2c(-c3nc(N)c4c(n3)NC(=O)C4(C)c3ccc(-c4nnco4)cc3)nc(CCC(F)(F)C(F)(F)F)nc21` (single isomer, unassigned) [Example 45, 5-(4-(1,3,4-Oxadiazol-2-yl)phenyl)-4-amino-5-methyl-2-(1-methyl-6-(3,3,4,4,4-pentafluorobutyl)-1H-pyrazolo[3,4-d]pyrimidin-4-yl)-5H-pyrrolo[2,3-d]pyrimidin-6(7H)-one], for which a half-maximal effect (EC50) was put at 716 nM and the Emax came out at 138%.

Turning to `Cn1ncc2c(-c3nc(N)c4c(n3)NC(=O)C4(C)c3ccc(Br)cc3)nc(CCC(F)(F)C(F)(F)F)nc21` (single isomer, unassigned) [Example 10, 4-Amino-5-(4-bromophenyl)-5-methyl-2-(1-methyl-6-(3,3,4,4,4-pentafluorobutyl)-1H-pyrazolo[3,4-d]pyrimidin-4-yl)-5H-pyrrolo[2,3-d]pyrimidin-6(7H)-one], the EC50 came to 197 nM and the Emax was 116%.

On to `[2H]C([2H])([2H])n1nc(C2CC2)c2c(-c3nc(N)c4c(n3)NC(=O)C4(C)c3ccc(F)cc3)nc(CCC(F)(F)C(F)(F)F)nc21` (stereo not drawn) [Example 59, 4-Amino-2-(3-cyclopropyl-6-(3,3,4,4,4-pentafluorobutyl)-1-trideuteriomethyl-1H-pyrazolo[3,4-d]pyrimidin-4-yl)-5-(4-fluorophenyl)-5-methyl-5H-pyrrolo[2,3-d]pyrimidin-6(7H)-one], for which the midpoint of the response, the EC50, lay at 299 nM and the Emax turned out to be 94%.

Consider `[2H]C([2H])([2H])n1nnc2c(-c3nc(N)c4c(n3)NC(=O)C4(C)c3ccc(F)c(OC)c3)nc(CCC(F)(F)C(F)(F)F)nc21` (single isomer, unassigned) [Example 72, 4-Amino-5-(4-fluoro-3-methoxyphenyl)-5-methyl-2-(5-(3,3,4,4,4-pentafluorobutyl-3-trideuteriomethyl)-3H-[1,2,3]triazolo[4,5-d]pyrimidin-7-yl)-5H-pyrrolo[2,3-d]pyrimidin-6(7H)-one], for which it took 424 nM to reach a half-maximal effect (EC50) and the Emax came out at 66%.
